Results published in US11312690B2, “Compounds, compositions, methods for treating diseases, and methods for preparing compounds” (UNIVERSITY OF LOUISVILLE RESEARCH FOUNDATION, INC., priority 2015, dated 2022).

Experiments:
[1] = system: MiaPaCa-2; test: Soft agar colony formation; assay type: cell-based, human
Experimental: FIG. 1. Effects of some compounds of Formula (I) on RalGEF inhibitor on soft agar growth and normal growth in 2D of pancreatic carcinoma cell lines. In FIGS. 1A and 1B, Panc-1 (ATCC® CRL-1469™) and MiaPaCa-2 (ATCC® CRL-1420™) mutant Ras containing pancreatic tumor cell lines were plated in soft agar in the presence of 10 μM or 0.9 μM of compound I-1 and scored for the formation of colonies. In FIGS. 1C and 1D, compound I-1 was then tested for the ability to inhibit cell growth on the same cell lines under normal 2D growth conditions on plastic. “0” is the carrier. Cells were seeded at the same density and scored after two weeks in culture.
Human pancreatic tumor cell lines MiaPaca-2 and Panc-1 contain activated K-Ras and were used in the initial screen to identify compound I-1. Soft agar colony formation remains an established in vitro assay to predict tumorigenicity and was used to predict tumorigenicity for compound I-1.
Several other compounds were tested against the Mia Paca-2 cell line using the soft agar colony formation in vitro assay in two experiments. For each table, DMSO was used as a control and, as such, within each table, the DMSO colonies are the measure against which each measurement in the corresponding table is compared.

[2] = system: Ras/Raf/MAPK pathway; test: MAPK pathway activation by phosphoERK antibody in cells with endogenous hyper-activated Ras; assay type: cell-based; details: 10 μM
Experimental: Specific Inhibition of endogenous Ras/RalGEF signaling. FIG. 4. Specific suppression of Ral activation by some compounds of Formula (I). Cells with endogenous hyper-activated Ras were assayed for endogenous Ral activation in the presence or absence of inhibitor (10 μM) using a Cell Biolabs (SanDiego Calif.) kit. Compound I-1 was dissolved in DMSO; DMSO serves as the carrier negative control. IP is immunoprecipitation. IB is immunoblot. Cell lysates were then assayed for the levels of MAPK pathway activation using a phosphoERK antibody. They were the same. Actin is a loading control.
RalGEFs drive Ral into the active, GTP bound form so it can bind its effector RalBP1. […] Commercially available kits available from several vendors use RalBP1 attached to beads as an affinity reagent specific to the active form of Ral. By measuring the level of activated Ral and comparing it to the total levels of Ral, it is possible to measure the state of endogenous Ral activation. We assayed untransfected cells containing endogenous hyper-activated Ras for the effects of compound I-1 treatment on endogenous levels of active Ral levels.

[3] = system: LNCaP clone FGC (prostate cancer); test: Tumorigenic phenotype in vitro, Ras driven tumor cell line; assay type: cell-based; details: data not shown
Source text: (§1) (ATCC® HTB-75™)(ovarian cancer); D283 Med (ATCC® HTB-185™) (Medulloblastoma); A549 (ATCC® CCL-185™) (lung cancer); and LNCaP clone FGC (ATCC® CRL1740™) (prostate cancer).

[4] = system: D283 Med (Medulloblastoma); test: as above; assay type: cell-based; details: data not shown
Source text: as §1

[5] = system: Caov-3 [Caov3] (ovarian cancer); test: as above; assay type: cell-based; details: data not shown
Source text: as §1

[6] = system: A549 (lung cancer); test: as above; assay type: cell-based; details: data not shown
Source text: as §1

[7] = Preliminary in vivo toxicity; parameters: species or system mice; details: 25 mg/kg, ip injection over 2 weeks, data not shown
[8] = system: Mia-PaCa-2 cells; test: Mia-PaCa-2 sub-cutaneous xenograft, primary tumor growth and lung metastasis; assay type: in vivo, NRG mice; details: 10 mg/kg ip every other day for 2 weeks, scored one week later
Experimental: Some compounds of Formula (I) suppress pancreatic cancer cell metastasis—FIG. 6. NRG mice were sub-cutaneously inoculated with PBS (“no tumor cells”) or 5×10^6 Ras driven Mia-PaCa-2 cells. Mice were allowed to recover for 1 week and then injected (ip) with PBS/DMSO carrier or 10 mg/kg of compound I-1 every other day for 2 weeks. One week later, mice were scored for primary tumor growth and lung metastasis.

[9] = molecular target: T1, interaction of K-Ras with RalGDS (Homo sapiens, UniProt Q12967); test: Ras/RalGEF binding, immunoprecipitation and immunoblot from co-transfected HEK-293 cells; details: 10 μM, HA K-Ras 12v and GFP-RalGDS, IP/IB, FIG. 3A
T1 construct: expressed in transfected cells; host or cells: HEK-293
T1 sequence (Q12967 1-914): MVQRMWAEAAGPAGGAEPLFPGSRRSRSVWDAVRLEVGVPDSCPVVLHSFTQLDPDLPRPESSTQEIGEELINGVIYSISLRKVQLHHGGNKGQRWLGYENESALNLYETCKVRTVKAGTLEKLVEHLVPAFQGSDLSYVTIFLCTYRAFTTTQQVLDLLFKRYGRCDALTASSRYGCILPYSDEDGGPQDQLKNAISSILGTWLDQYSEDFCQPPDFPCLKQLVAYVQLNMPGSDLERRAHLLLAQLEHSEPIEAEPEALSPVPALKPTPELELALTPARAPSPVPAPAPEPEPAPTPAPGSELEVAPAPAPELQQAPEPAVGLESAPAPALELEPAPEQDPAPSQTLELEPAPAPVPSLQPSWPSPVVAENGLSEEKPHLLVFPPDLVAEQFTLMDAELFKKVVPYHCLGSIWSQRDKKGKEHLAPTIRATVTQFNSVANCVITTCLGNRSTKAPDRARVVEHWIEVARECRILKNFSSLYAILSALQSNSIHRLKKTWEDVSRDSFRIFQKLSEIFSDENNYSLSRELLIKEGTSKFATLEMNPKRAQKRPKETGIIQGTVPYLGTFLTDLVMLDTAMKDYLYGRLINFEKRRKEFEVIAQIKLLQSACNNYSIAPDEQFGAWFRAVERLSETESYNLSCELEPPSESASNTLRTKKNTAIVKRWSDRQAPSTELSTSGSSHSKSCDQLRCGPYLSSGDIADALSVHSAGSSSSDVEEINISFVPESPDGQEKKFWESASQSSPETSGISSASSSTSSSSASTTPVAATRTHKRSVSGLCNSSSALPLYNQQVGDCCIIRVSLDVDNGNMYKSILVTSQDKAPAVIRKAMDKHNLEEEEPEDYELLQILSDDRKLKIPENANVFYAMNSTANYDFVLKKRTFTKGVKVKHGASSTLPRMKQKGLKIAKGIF

COc1cccc(CNc2nc(CN(C)Cc3cccc(OC)c3)nc3sc(C)c(C)c23)c1 [Compound I-1]
ability of the cells to grow in soft agar ([1]; 10 μM, FIG. 1B): almost completely blocked | Colonies in agar ([1]; 10 μM, Table 2 experiment, DMSO control 182 ± 7 colonies): 0 ± 0 | Colonies in agar ([1]; 10 μM, Table 3 experiment, DMSO control 1686 ± 114 colonies): 12 ± 1 | tumorigenic phenotype in vitro ([1]; FIG. 1B): blocks the tumorigenic phenotype in vitro at low μM or sub μM levels | IC50 ([1]; Homo sapiens, MIA PaCa-2, read-out: IC50 (concentration that inhibits 50% of colony formation)): < 1 µM | Ras/Raf/MAPK pathway activation (levels of phospho ERK) [2]: no inhibition of the Ras/Raf/MAPK pathway activation was detected | tumorigenic phenotype in vitro [3]: blocks the tumorigenic phenotype in vitro | tumorigenic phenotype in vitro [4]: blocks the tumorigenic phenotype in vitro | tumorigenic phenotype in vitro [5]: blocks the tumorigenic phenotype in vitro | tumorigenic phenotype in vitro [6]: blocks the tumorigenic phenotype in vitro | deleterious effect on mice (behavior, weight) [7]: no obvious deleterious effect | effects on the primary tumor [8]: not obvious | lung metastasis ([8]; FIG. 6): metastasis was inhibited | stable association of Ras and RalGDS [9]: inhibited the stable association of Ras and RalGDS
